Reference: PubChem BioAssay (NCI)
Values joined by “and” are separate entries in the source; they are usually repeats but may differ in a detail not shown here. Identical values can stand only once.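 Tested at 5 concentrations; 48 h exposure; 96-well plates; endpoints linearly interpolated, else capped at highest concentration. GI50 is the concentration that inhibits growth by half. At the TGI there is no net growth.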

Key:
Experiment in all cases: NCI tumour cell line growth inhibition, 48 h
A498 renal = tested on: A498 renal
CCRF-CEM leukemia = tested on: CCRF-CEM leukemia
IGROV1 ovarian = tested on: IGROV1 ovarian
MDA-N = tested on: MDA-N
NCI-H226 lung = tested on: NCI-H226 lung
OVCAR-4 ovarian = tested on: OVCAR-4 ovarian
SN12C renal = tested on: SN12C renal
T-47D breast = tested on: T-47D breast
DLD-1 colon = tested on: DLD-1 colon
DMS 114 small cell lung = tested on: DMS 114 small cell lung
KM20L2 colon = tested on: KM20L2 colon
SNB-78 CNS = tested on: SNB-78 CNS

SMILES | TGI (A498 renal) [nM] | TGI (CCRF-CEM leukemia) [nM] | TGI (IGROV1 ovarian) [nM] | TGI (MDA-N) | TGI (NCI-H226 lung) | TGI (OVCAR-4 ovarian) | TGI (SN12C renal) | TGI (T-47D breast) | GI50 (A498 renal) [nM] | GI50 (CCRF-CEM leukemia) [nM] | GI50 (IGROV1 ovarian) [nM] | GI50 (NCI-H226 lung) [nM] | GI50 (OVCAR-4 ovarian) [nM] | GI50 (T-47D breast) [nM] | TGI (DLD-1 colon) [nM] | TGI (DMS 114 small cell lung) [nM] | TGI (KM20L2 colon) [nM] | TGI (SNB-78 CNS) [nM] | GI50 (SN12C renal) [nM] | GI50 (MDA-N) [nM]
Clc1ccc2c(NCCNc3ccnc4cc(Cl)ccc34)ccnc2c1 | 32200 | 46200 | 36600 | 31600 nM | 62500 nM | 35500 nM | 33400 nM | 43800 nM | – | – | – | – | – | – | – | – | – | – | – | –
COc1ccc(Cl)cc1NC(=O)c1c(NC(=O)C(F)(F)C(F)(F)F)sc2c1CCCCC2 | 2060 | > 100000 | > 100000 | – | 6050 nM | 5640 nM | – | 5490 nM | 312 | 769 | 2810 | 1910 | 1570 | 1260 | – | – | – | – | – | –
COc1ccc(CCCC(=O)O)c(C)c1 | 52600 | > 100000 | > 100000 | > 100000 nM | 91100 nM | > 100000 nM | > 100000 nM | > 100000 nM | – | – | – | – | – | – | – | – | – | – | – | –
COc1cccc2c1C(=O)c1c(O)c3c(c(O)c1C2=O)C[C@@](O)(/C(C)=N/NC(=O)c1ccccc1)C[C@@H]3OC1CC(N)C(O)C(C)O1 (stereo partly specified) | 3420 | 3190 | 6350 | 1960 nM | 786 nM | 7740 nM | 5700 nM | 3440 nM | – | – | – | – | – | – | 17600 | 1110 | 9230 | 6100 | – | –
COC(=O)c1cc2c3c(cc(O)c2[nH]1)N(C(=O)C1Cc2cc(OC)c(OC)c(OC)c2N1)CC3CCl (stereo unspecified) | < 10 | > 100000 | 980 | – | – | 845 nM | 15.4 nM | < 10 nM | < 10 | < 10 | < 10 | – | < 10 | < 10 | – | – | – | – | < 10 | –
Nc1nc(N)c2nc(-c3ccco3)cnc2n1 | > 100000 | > 100000 | > 100000 | – | > 100000 nM | – | > 100000 nM | – | – | – | – | – | – | – | > 100000 | > 100000 | > 100000 | > 100000 | – | –
CC[C@@]1(O)C(=O)OCc2c1cc1n(c2=O)Cc2c-1nc1ccccc1c2/C=N\NC(=O)C(N)Cc1cnc[nH]1 (stereo partly specified) | 4090 | 15000 | > 54700 | > 100000 nM | 16500 nM | > 100000 nM | > 73000 nM | > 100000 nM | – | – | – | – | – | – | – | – | – | – | – | –
COc1cc2cc(C(=O)N3CC(CCl)c4c3cc(N(C)C)c3ccccc43)[nH]c2c(OC)c1OC (stereo unspecified) | 17.4 | – | – | – | – | 114 nM | 235 nM | – | – | – | – | – | – | – | – | – | – | – | – | –
CCOC(=O)c1c(C)[nH]c(/C=C2\N=C(c3ccc[nH]3)C=C2OC)c1C | 5700 | – | 1090 | – | – | 2810 nM | – | – | 1870 | – | 30.5 | – | 135 | – | – | – | – | – | – | –
O=C1C=C(N2CC2)C(=O)C=C1N1CC1 | 158 | 456 | 2480 | 274 nM and 1900 nM | 261 nM and 1400 nM | 983 nM and 613 nM | 278 nM and 1140 nM | 582 nM and 2850 nM | – | 5.68 | – | 12.9 | 185 | 51.6 | 1500 | 644 | 1740 | 1800 | 30.7 | 113
